Measurements reported in publication PMC6891286, “Towards the Development of an In vivo Chemical Probe for Cyclin G Associated Kinase (GAK)” (Molecules, 2019).

Key:
Assay in all cases: KINOMEscan
Assay type in all cases: binding
[1] = molecular target: T1, ABL1-nonphosphorylated (Homo sapiens, UniProt P00519); details: 35 at 1 µM; read-out: % inhibition
T1 construct: purchased Eurofins DiscoverX (KINOMEscan)
Protocol: (§1) KinomeScan Assay on 35 was performed as previously described at EuroFins DiscoverX (Fremont, CA, USA).

[2] = molecular target: T2, DDR2 (Homo sapiens, UniProt Q16832); details: 35 at 1 µM; read-out: % inhibition
T2 construct: purchased Eurofins DiscoverX (KINOMEscan)
Protocol: as §1

[3] = molecular target: T3, PDPK1 (Homo sapiens, UniProt O15530); details: 35 at 1 µM; read-out: % inhibition
T3 construct: purchased Eurofins DiscoverX (KINOMEscan)
Protocol: as §1

[4] = molecular target: T4, MAST1 (Homo sapiens, UniProt Q9Y2H9); details: 35 at 1 µM; read-out: % inhibition
T4 construct: purchased Eurofins DiscoverX (KINOMEscan)
Protocol: as §1

[5] = molecular target: T5, GRK3 (Homo sapiens, UniProt P35626); details: 35 at 1 µM; read-out: % inhibition
T5 construct: purchased Eurofins DiscoverX (KINOMEscan)
Protocol: as §1

[6] = molecular target: T6, KIT(D816V) (Homo sapiens, UniProt P10721, D816V); details: 35 at 1 µM; read-out: % inhibition
T6 construct: purchased Eurofins DiscoverX (KINOMEscan)
Protocol: as §1

[7] = molecular target: T7, SGK2 (Homo sapiens, UniProt Q9HBY8); details: 35 at 1 µM; read-out: % inhibition
T7 construct: purchased Eurofins DiscoverX (KINOMEscan)
Protocol: as §1

[8] = molecular target: T8, EGFR(L747-E749del, A750P) (Homo sapiens, UniProt P00533, A750P/DEL747-749); details: 35 at 1 µM; read-out: % inhibition
T8 construct: purchased Eurofins DiscoverX (KINOMEscan)
Protocol: as §1

[9] = molecular target: T9, PHKG1 (Homo sapiens, UniProt Q16816); details: 35 at 1 µM; read-out: % inhibition
T9 construct: purchased Eurofins DiscoverX (KINOMEscan)
Protocol: as §1

[10] = molecular target: T10, FLT3(R834Q) (Homo sapiens, UniProt P36888, R834Q); details: 35 at 1 µM; read-out: % inhibition
T10 construct: purchased Eurofins DiscoverX (KINOMEscan)
Protocol: as §1

[11] = molecular target: T11, JAK3(JH1domain-catalytic) (Homo sapiens, UniProt P52333); details: 35 at 1 µM; read-out: % inhibition
T11 construct: JAK3(JH1domain-catalytic); purchased Eurofins DiscoverX (KINOMEscan)
Protocol: as §1

[12] = molecular target: T12, PIP5K1C (Homo sapiens, UniProt O60331); details: 35 at 1 µM; read-out: % inhibition
T12 construct: purchased Eurofins DiscoverX (KINOMEscan)
Protocol: as §1

[13] = molecular target: T13, WNK4 (Homo sapiens, UniProt Q96J92); details: 35 at 1 µM; read-out: % inhibition
T13 construct: purchased EuroFins DiscoverX (Fremont, CA, USA)
Protocol: as §1

[14] = molecular target: T14, FGFR4 (Homo sapiens, UniProt P22455); details: 35 at 1 µM; read-out: % inhibition
T14 construct: purchased Eurofins DiscoverX (KINOMEscan)
Protocol: as §1

[15] = molecular target: T15, FRK (Homo sapiens, UniProt P42685); details: 35 at 1 µM; read-out: % inhibition
T15 construct: purchased Eurofins DiscoverX (KINOMEscan)
Protocol: as §1

[16] = molecular target: T16, ASK1 (Homo sapiens, UniProt Q99683); details: 35 at 1 µM; read-out: % inhibition
T16 construct: purchased Eurofins DiscoverX (KINOMEscan)
Protocol: as §1

[17] = molecular target: T17, RIPK2 (Homo sapiens, UniProt O43353)
T17 construct: purchased Eurofins DiscoverX (KINOMEscan)
Protocol: as §1

[18] = molecular target: T18, MTOR (Homo sapiens, UniProt P42345); details: 35 at 1 µM; read-out: % inhibition
T18 construct: purchased Eurofins DiscoverX (KINOMEscan)
Protocol: as §1

[19] = molecular target: T19, AMPK-alpha1 (Homo sapiens, UniProt Q13131); details: 35 at 1 µM; read-out: % inhibition
T19 construct: purchased Eurofins DiscoverX (KINOMEscan)
Protocol: as §1

[20] = molecular target: T20, NDR2 (Homo sapiens, UniProt Q9Y2H1); details: 35 at 1 µM; read-out: % inhibition
T20 construct: purchased Eurofins DiscoverX (KINOMEscan)
Protocol: as §1

[21] = molecular target: T21, CSNK2A1 (Homo sapiens, UniProt P68400); details: 35 at 1 µM; read-out: % inhibition
T21 construct: purchased Eurofins DiscoverX (KINOMEscan)
Protocol: as §1

[22] = molecular target: T22, WEE2 (Homo sapiens, UniProt P0C1S8); details: 35 at 1 µM; read-out: % inhibition
T22 construct: purchased Eurofins DiscoverX (KINOMEscan)
Protocol: as §1

[23] = molecular target: T23, GRK1 (Homo sapiens, UniProt Q15835); details: 35 at 1 µM; read-out: % inhibition
T23 construct: purchased Eurofins DiscoverX (KINOMEscan)
Protocol: as §1

[24] = molecular target: T24, MARK2 (Homo sapiens, UniProt Q7KZI7); details: 35 at 1 µM; read-out: % inhibition
T24 construct: purchased Eurofins DiscoverX (KINOMEscan)
Protocol: as §1

[25] = molecular target: T25, DYRK1B (Homo sapiens, UniProt Q9Y463); details: 35 at 1 µM; read-out: % inhibition
T25 construct: purchased Eurofins DiscoverX (KINOMEscan)
Protocol: as §1

[26] = molecular target: T26, BRAF(V600E) (Homo sapiens, UniProt P15056, V600E); details: 35 at 1 µM; read-out: % inhibition
T26 construct: purchased Eurofins DiscoverX (KINOMEscan)
Protocol: as §1

[27] = molecular target: T27, CDC2L2 (Homo sapiens, UniProt Q9UQ88); details: 35 at 1 µM; read-out: % inhibition
T27 construct: purchased Eurofins DiscoverX (KINOMEscan)
Protocol: as §1

[28] = molecular target: T28, MYLK2 (Homo sapiens, UniProt Q9H1R3); details: 35 at 1 µM; read-out: % inhibition
T28 construct: purchased Eurofins DiscoverX (KINOMEscan)
Protocol: as §1

[29] = molecular target: T29, ABL2 (Homo sapiens, UniProt P42684); details: 35 at 1 µM; read-out: % inhibition
T29 construct: purchased Eurofins DiscoverX (KINOMEscan)
Protocol: as §1

[30] = molecular target: T30, MEK1 (Homo sapiens, UniProt Q02750); details: 35 at 1 µM; read-out: % inhibition
T30 construct: purchased Eurofins DiscoverX (KINOMEscan)
Protocol: as §1

[31] = molecular target: T31, NEK6 (Homo sapiens, UniProt Q9HC98); details: 35 at 1 µM; read-out: % inhibition
T31 construct: purchased Eurofins DiscoverX (KINOMEscan)
Protocol: as §1

[32] = molecular target: T32, PIK4CB (Homo sapiens, UniProt Q9UBF8); details: 35 at 1 µM; read-out: % inhibition
T32 construct: purchased Eurofins DiscoverX (KINOMEscan)
Protocol: as §1

[33] = molecular target: T33, GCN2(Kin.Dom.2,S808G) (Homo sapiens, UniProt Q9P2K8, S808G); details: 35 at 1 µM; read-out: % inhibition
T33 construct: GCN2(Kin.Dom.2,S808G); purchased Eurofins DiscoverX (KINOMEscan)
Protocol: as §1

[34] = molecular target: T34, TESK1 (Homo sapiens, UniProt Q15569); details: 35 at 1 µM; read-out: % inhibition
T34 construct: purchased Eurofins DiscoverX (KINOMEscan)
Protocol: as §1

[35] = molecular target: T35, LTK (Homo sapiens, UniProt P29376); details: 35 at 1 µM; read-out: % inhibition
T35 construct: purchased Eurofins DiscoverX (KINOMEscan)
Protocol: as §1

[36] = molecular target: T36, NEK5 (Homo sapiens, UniProt Q6P3R8); details: 35 at 1 µM; read-out: % inhibition
T36 construct: purchased Eurofins DiscoverX (KINOMEscan)
Protocol: as §1

[37] = molecular target: T37, YSK4 (Homo sapiens, UniProt Q56UN5); details: 35 at 1 µM; read-out: % inhibition
T37 construct: purchased Eurofins DiscoverX (KINOMEscan)
Protocol: as §1

[38] = molecular target: T38, DMPK2 (Homo sapiens, UniProt Q6DT37); details: 35 at 1 µM; read-out: % inhibition
T38 construct: purchased Eurofins DiscoverX (KINOMEscan)
Protocol: as §1

[39] = molecular target: T39, PYK2 (Homo sapiens, UniProt Q14289); details: 35 at 1 µM; read-out: % inhibition
T39 construct: purchased Eurofins DiscoverX (KINOMEscan)
Protocol: as §1

[40] = molecular target: T40, PAK3 (Homo sapiens, UniProt O75914); details: 35 at 1 µM; read-out: % inhibition
T40 construct: purchased Eurofins DiscoverX (KINOMEscan)
Protocol: as §1

[41] = molecular target: T41, FLT3 (Homo sapiens, UniProt P36888); details: 35 at 1 µM; read-out: % inhibition
T41 construct: purchased Eurofins DiscoverX (KINOMEscan)
Protocol: as §1

[42] = molecular target: T42, PKN1 (Homo sapiens, UniProt Q16512); details: 35 at 1 µM; read-out: % inhibition
T42 construct: purchased Eurofins DiscoverX (KINOMEscan)
Protocol: as §1

T17 sequence (O43353 whole entry): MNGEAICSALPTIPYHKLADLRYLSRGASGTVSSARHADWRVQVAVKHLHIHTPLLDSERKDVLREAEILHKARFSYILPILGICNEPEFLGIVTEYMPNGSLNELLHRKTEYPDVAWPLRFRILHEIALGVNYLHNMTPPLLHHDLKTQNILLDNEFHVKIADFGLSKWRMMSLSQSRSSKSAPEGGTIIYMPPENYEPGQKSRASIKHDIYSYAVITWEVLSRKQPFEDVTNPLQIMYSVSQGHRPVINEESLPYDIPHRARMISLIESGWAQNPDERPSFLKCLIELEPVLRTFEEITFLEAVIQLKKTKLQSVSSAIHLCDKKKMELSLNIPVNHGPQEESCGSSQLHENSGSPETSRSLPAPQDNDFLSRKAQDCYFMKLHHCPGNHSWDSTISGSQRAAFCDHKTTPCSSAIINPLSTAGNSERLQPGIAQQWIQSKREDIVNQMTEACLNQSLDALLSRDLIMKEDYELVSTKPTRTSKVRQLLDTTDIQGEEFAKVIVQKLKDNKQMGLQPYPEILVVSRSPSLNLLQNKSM
T30 sequence (Q02750 whole entry): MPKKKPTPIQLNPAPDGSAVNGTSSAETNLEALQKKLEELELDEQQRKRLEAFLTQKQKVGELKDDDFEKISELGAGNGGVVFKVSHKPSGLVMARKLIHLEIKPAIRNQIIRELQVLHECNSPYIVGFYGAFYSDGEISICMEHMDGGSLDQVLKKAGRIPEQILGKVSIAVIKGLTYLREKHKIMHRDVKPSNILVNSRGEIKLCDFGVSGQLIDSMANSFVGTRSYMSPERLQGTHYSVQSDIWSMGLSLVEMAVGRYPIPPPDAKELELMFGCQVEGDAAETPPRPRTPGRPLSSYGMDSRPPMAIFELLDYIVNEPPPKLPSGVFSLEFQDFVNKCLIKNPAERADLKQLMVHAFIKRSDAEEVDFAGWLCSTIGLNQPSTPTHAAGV
T22 sequence (P0C1S8 whole entry): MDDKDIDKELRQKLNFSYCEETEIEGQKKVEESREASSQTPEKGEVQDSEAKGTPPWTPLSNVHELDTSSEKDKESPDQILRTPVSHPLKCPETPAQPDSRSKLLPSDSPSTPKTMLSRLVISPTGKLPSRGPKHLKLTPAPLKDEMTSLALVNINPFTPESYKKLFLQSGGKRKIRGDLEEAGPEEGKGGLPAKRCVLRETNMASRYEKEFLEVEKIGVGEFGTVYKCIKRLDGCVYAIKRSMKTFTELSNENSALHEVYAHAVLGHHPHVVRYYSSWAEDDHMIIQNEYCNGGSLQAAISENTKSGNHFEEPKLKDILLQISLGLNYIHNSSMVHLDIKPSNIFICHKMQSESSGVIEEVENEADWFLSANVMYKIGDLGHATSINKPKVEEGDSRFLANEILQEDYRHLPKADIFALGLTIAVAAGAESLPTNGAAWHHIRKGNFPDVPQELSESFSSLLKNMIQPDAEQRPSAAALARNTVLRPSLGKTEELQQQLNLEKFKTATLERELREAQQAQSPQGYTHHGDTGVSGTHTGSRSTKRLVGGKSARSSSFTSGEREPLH
T14 sequence (P22455 22-802): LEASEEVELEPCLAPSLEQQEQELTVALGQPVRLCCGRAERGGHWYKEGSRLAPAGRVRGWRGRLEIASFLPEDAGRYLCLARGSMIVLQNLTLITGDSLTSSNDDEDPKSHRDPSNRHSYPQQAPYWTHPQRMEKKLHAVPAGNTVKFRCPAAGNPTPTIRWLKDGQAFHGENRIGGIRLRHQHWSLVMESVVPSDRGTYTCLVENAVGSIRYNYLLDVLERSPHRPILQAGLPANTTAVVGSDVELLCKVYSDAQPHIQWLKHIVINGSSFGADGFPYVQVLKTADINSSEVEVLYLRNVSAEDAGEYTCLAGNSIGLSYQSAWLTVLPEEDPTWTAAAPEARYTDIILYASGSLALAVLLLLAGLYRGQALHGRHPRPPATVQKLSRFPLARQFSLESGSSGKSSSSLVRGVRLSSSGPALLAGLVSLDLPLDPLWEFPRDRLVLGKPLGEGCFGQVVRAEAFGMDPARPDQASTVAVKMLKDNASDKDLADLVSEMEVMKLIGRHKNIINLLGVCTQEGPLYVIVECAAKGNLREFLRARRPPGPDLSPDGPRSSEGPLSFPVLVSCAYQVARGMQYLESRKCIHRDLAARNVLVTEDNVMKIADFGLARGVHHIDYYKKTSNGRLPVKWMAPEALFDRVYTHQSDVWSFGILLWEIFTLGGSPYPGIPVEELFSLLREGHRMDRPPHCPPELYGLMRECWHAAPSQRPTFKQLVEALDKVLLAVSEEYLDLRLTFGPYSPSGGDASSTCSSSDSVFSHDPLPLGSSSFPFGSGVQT
T33 sequence (Q9P2K8 585-1001 S808G limits assumed): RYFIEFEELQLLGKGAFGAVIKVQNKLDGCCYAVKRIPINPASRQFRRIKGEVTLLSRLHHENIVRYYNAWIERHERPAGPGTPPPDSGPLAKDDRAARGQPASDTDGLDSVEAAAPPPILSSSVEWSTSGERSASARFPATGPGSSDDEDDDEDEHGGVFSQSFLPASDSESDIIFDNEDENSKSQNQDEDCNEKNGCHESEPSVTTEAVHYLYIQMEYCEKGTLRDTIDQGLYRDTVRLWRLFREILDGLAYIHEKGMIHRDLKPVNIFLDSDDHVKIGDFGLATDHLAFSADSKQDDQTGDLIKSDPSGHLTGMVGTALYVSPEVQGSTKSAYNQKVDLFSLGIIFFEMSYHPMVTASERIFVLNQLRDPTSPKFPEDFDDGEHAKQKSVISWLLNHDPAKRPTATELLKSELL
T3 sequence (O15530 whole entry): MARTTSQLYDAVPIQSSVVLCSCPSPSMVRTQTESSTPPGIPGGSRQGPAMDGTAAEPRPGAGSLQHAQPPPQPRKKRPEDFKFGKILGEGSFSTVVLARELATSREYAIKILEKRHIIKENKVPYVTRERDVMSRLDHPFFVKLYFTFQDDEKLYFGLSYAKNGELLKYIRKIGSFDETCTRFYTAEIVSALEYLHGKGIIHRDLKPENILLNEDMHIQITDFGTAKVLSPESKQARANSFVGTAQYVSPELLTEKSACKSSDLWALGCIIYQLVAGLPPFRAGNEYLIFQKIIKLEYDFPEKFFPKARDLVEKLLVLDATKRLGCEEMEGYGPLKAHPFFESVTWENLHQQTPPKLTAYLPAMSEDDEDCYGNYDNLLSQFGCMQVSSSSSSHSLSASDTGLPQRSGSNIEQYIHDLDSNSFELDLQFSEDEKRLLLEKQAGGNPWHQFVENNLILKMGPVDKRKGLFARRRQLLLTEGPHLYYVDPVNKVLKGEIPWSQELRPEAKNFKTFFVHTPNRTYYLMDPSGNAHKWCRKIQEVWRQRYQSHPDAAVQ
T24 sequence (Q7KZI7 whole entry): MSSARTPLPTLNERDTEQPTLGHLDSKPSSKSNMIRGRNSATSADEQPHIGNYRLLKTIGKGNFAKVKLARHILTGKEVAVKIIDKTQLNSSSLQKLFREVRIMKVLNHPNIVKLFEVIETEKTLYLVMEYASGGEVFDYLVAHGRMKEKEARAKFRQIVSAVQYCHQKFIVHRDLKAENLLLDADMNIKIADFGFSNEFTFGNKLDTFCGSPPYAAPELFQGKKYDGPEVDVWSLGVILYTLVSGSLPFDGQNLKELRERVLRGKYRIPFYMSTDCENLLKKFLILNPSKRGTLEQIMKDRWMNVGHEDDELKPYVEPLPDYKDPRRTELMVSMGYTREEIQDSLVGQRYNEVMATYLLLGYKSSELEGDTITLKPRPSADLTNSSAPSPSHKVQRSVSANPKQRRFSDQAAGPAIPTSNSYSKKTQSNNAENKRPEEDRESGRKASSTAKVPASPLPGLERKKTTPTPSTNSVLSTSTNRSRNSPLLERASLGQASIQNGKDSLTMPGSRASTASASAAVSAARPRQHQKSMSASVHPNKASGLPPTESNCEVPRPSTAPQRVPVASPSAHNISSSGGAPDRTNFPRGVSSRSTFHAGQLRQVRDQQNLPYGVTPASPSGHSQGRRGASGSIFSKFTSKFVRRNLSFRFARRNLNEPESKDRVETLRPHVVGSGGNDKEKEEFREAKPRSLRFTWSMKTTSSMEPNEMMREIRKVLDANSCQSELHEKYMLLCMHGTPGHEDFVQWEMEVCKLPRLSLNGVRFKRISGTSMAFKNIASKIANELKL
T40 sequence (O75914 whole entry): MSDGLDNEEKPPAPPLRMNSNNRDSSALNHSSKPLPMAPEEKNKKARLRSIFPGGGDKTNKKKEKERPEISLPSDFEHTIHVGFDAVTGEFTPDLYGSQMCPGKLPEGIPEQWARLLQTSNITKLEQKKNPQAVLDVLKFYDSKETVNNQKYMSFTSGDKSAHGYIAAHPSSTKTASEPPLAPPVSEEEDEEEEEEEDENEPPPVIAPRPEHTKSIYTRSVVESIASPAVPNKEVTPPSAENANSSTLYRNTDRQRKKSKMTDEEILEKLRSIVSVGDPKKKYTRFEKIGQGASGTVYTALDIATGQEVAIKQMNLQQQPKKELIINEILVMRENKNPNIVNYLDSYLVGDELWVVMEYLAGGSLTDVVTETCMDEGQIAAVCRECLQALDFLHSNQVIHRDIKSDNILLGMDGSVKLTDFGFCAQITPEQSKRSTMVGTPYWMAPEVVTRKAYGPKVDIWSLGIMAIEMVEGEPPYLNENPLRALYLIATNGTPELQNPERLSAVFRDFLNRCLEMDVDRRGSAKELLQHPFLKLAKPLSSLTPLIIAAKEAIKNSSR
T7 sequence (Q9HBY8 whole entry): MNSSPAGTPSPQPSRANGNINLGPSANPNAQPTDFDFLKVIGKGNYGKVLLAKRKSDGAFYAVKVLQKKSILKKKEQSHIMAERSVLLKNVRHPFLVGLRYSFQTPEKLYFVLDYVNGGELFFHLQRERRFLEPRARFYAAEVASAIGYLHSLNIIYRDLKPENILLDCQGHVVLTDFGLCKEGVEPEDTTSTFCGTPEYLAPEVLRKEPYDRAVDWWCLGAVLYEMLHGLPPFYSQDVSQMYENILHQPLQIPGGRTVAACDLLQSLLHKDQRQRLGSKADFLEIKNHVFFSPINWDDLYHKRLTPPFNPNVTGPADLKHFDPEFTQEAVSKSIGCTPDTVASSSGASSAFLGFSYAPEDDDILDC

Brc1ccc2nccc(Nc3ccc4cn[nH]c4c3)c2c1 [Compound 35, 6-Bromo-N-(1H-indazol-6-yl)quinolin-4-amine]
activity at 1 µM [1]: 88% | activity at 1 µM [2]: 100% | activity at 1 µM [3]: 100% | activity at 1 µM [4]: 100% | activity at 1 µM [5]: 76% | activity at 1 µM [6]: 100% | activity at 1 µM [7]: 96% | activity at 1 µM [8]: 81% | activity at 1 µM [9]: 100% | activity at 1 µM [10]: 83% | activity at 1 µM [11]: 83% | activity at 1 µM [12]: 95% | activity at 1 µM [13]: 100% | activity at 1 µM [14]: 100% | activity at 1 µM [15]: 100% | activity at 1 µM [16]: 100% | activity at 1 µM ([17]; 35 at 1 µM, read-out: % inhibition): 29% | inhibition at 1 µM ([17]; KinomeScan, screened at 1 μM, read-out: kinases inhibited at 1 μM: RIPK2): 71% | activity at 1 µM [18]: 100% | activity at 1 µM [19]: 100% | activity at 1 µM [20]: 89% | activity at 1 µM [21]: 100% | activity at 1 µM [22]: 97% | activity at 1 µM [23]: 68% | activity at 1 µM [24]: 100% | activity at 1 µM [25]: 100% | activity at 1 µM [26]: 80% | activity at 1 µM [27]: 70% | activity at 1 µM [28]: 100% | activity at 1 µM [29]: 88% | activity at 1 µM [30]: 71% | activity at 1 µM [31]: 100% | activity at 1 µM [32]: 100% | activity at 1 µM [33]: 59% | activity at 1 µM [34]: 100% | activity at 1 µM [35]: 100% | activity at 1 µM [36]: 93% | activity at 1 µM [37]: 98% | activity at 1 µM [38]: 73% | activity at 1 µM [39]: 100% | activity at 1 µM [40]: 100% | activity at 1 µM [41]: 100% | activity at 1 µM [42]: 100%
